Paper PMC2248166, “Quantitative peptide binding motifs for 19 human and mouse MHC class I molecules derived using positional scanning combinatorial peptide libraries” (Immunome Research, 2008)
Where a SMILES comes first, the peptide text is derived from it.

target: HLA A*3001 (Homo sapiens, UniProt P04439, D140H/D185E/E176W/F33S/G80R/H175R/K168Q/R138E/R41S); test: biochemical; assay type: binding
Sequence (P04439 25-365 limits assumed, stated change not applied): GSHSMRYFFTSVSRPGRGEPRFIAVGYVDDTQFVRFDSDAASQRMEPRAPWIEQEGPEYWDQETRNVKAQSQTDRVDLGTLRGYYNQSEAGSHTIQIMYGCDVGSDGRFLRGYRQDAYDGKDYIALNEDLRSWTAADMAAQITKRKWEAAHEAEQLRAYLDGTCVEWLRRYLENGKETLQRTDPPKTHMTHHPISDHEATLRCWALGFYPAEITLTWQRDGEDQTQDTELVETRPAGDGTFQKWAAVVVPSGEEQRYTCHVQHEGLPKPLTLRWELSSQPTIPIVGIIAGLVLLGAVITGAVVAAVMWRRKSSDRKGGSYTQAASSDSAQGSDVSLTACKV

Row | SMILES | IC50 [nM]
1 | CC[C@H](C)[C@H](NC(=O)[C@H](CCCNC(=N)N)NC(=O)[C@@H](NC(=O)[C@@H](N)CCCCN)[C@@H](C)O)C(=O)N[C@@H](CCCNC(=N)N)C(=O)N[C@@H](CC(N)=O)C(=O)N[C@@H](CC(C)C)C(=O)N[C@@H](CCCCN)C(=O)N[C@@H](CCCNC(=N)N)C(=O)O [3102.0236] (H-KTRIRNLKR-OH) | 6.5
2 | CC[C@H](C)[C@H](NC(=O)[C@@H](NC(=O)[C@H](CC(N)=O)NC(=O)[C@H](CCCCN)NC(=O)[C@H](CO)NC(=O)[C@@H](N)CCCNC(=N)N)[C@@H](C)O)C(=O)N[C@H](C(=O)N[C@H](C(=O)N[C@@H](C)C(=O)O)[C@@H](C)CC)[C@@H](C)CC [3102.0089] (H-RSKNTIIIA-OH) | 0.16
3 | CC[C@H](C)[C@H](NC(=O)[C@H](CCSC)NC(=O)[C@H](CCCCN)NC(=O)[C@@H](NC(=O)[C@@H](N)CC(C)C)C(C)C)C(=O)N[C@@H](CC(N)=O)C(=O)N[C@@H](Cc1c[nH]cn1)C(=O)N[C@@H](CC(C)C)C(=O)N[C@@H](CCCCN)C(=O)O [3102.0010] (H-LVKMINHLK-OH) | 42
4 | C[C@H](NC(=O)[C@H](CCCNC(=N)N)NC(=O)[C@H](CC(N)=O)NC(=O)[C@H](CCC(N)=O)NC(=O)[C@H](Cc1ccccc1)NC(=O)[C@H](CCCCN)NC(=O)[C@@H](NC(=O)[C@@H](N)CCCNC(=N)N)[C@@H](C)O)C(=O)N[C@@H](CCCCN)C(=O)O [3102.0266] (H-RTKFQNRAK-OH) | 0.16
5 | CC(C)C[C@H](NC(=O)[C@H](CC(C)C)NC(=O)[C@H](CCCNC(=N)N)NC(=O)[C@@H](NC(=O)[C@@H](N)CO)C(C)C)C(=O)N[C@@H](CC(N)=O)C(=O)N[C@@H](Cc1ccc(O)cc1)C(=O)N[C@@H](Cc1ccccc1)C(=O)N[C@@H](CCCCN)C(=O)O [3102.0158] (H-SVRLLNYFK-OH) | 0.24
6 | CC(C)C[C@H](NC(=O)[C@H](CO)NC(=O)[C@H](CC(C)C)NC(=O)[C@H](CS)NC(=O)[C@H](CCCNC(=N)N)NC(=O)[C@H](CO)NC(=O)[C@@H](N)CS)C(=O)N[C@@H](Cc1ccccc1)C(=O)N[C@@H](Cc1ccc(O)cc1)C(=O)O [3102.0178] (H-CSRCLSLFY-OH) | 22
7 | CC[C@H](C)[C@H](NC(=O)CNC(=O)[C@H](CC(C)C)NC(=O)[C@@H]1CCCN1C(=O)CNC(=O)[C@H](CCCNC(=N)N)NC(=O)[C@@H](NC(=O)[C@@H](N)CCCNC(=N)N)[C@@H](C)O)C(=O)N[C@@H](CC(C)C)C(=O)O [3102.0040] (H-RTRGPLGIL-OH) | 0.086
8 | CC[C@H](C)[C@H](NC(=O)[C@H](CO)NC(=O)[C@H](CO)NC(=O)[C@H](CO)NC(=O)[C@H](CCCCN)NC(=O)[C@H](CCCNC(=N)N)NC(=O)[C@H](CO)NC(=O)CN)C(=O)N[C@@H](CC(C)C)C(=O)O [3102.0276] (H-GSRKSSSIL-OH) | 1.6
9 | CC[C@H](C)[C@H](NC(=O)[C@H](C)NC(=O)[C@H](Cc1ccc(O)cc1)NC(=O)[C@H](CCCCN)NC(=O)[C@H](CCCCN)NC(=O)[C@H](CCCCN)NC(=O)[C@@H](NC(=O)[C@@H](N)CCCCN)C(C)C)C(=O)NCC(=O)O [3102.0280] (H-KVKKKYAIG-OH) | 1.6
10 | CC(C)C[C@H](NC(=O)[C@H](CC(N)=O)NC(=O)[C@H](CCC(N)=O)NC(=O)[C@H](CC(N)=O)NC(=O)[C@H](CO)NC(=O)[C@H](CC(C)C)NC(=O)[C@H](Cc1c[nH]cn1)NC(=O)[C@@H](NC(=O)[C@@H](N)Cc1c[nH]cn1)[C@@H](C)O)C(=O)O [3102.0108] (H-HTHLSNQNL-OH) | 5.8
11 | CC[C@H](C)[C@H](NC(=O)[C@H](CCCCN)NC(=O)[C@H](Cc1c[nH]cn1)NC(=O)[C@@H](N)CCCCN)C(=O)N[C@@H](Cc1ccccc1)C(=O)N[C@@H](CO)C(=O)N1CCC[C@H]1C(=O)N[C@@H](Cc1ccccc1)C(=O)N[C@@H](CCCCN)C(=O)O [3102.0267] (H-KHKIFSPFK-OH) | 0.89
12 | CC[C@H](C)[C@H](NC(=O)[C@H](CCCNC(=N)N)NC(=O)[C@H](CCC(N)=O)NC(=O)[C@@H](N)CCSC)C(=O)N[C@H](C(=O)N[C@@H](CO)C(=O)N[C@@H](CC(C)C)C(=O)N[C@@H](CO)C(=O)N[C@H](C(=O)O)C(C)C)[C@@H](C)CC [3102.0069] (H-MQRIISLSV-OH) | 8.8
13 | CC(C)[C@H](NC(=O)[C@H](CCCCN)NC(=O)[C@H](Cc1ccccc1)NC(=O)[C@@H](NC(=O)[C@H](CC(=O)O)NC(=O)[C@H](Cc1ccc(O)cc1)NC(=O)[C@H](CCCNC(=N)N)NC(=O)[C@@H](NC(=O)[C@@H](N)CCCNC(=N)N)[C@@H](C)O)[C@@H](C)O)C(=O)O [3102.0144] (H-RTRYDTFKV-OH) | 0.2
14 | CC(C)[C@H](NC(=O)[C@H](CO)NC(=O)[C@H](CCCNC(=N)N)NC(=O)[C@H](CCCCN)NC(=O)[C@H](CO)NC(=O)[C@H](CC(N)=O)NC(=O)[C@H](CCCNC(=N)N)NC(=O)[C@H](CC(N)=O)NC(=O)[C@@H](N)CCCCN)C(=O)O [3102.0025] (H-KNRNSKRSV-OH) | 33
15 | CC[C@H](C)[C@H](NC(=O)[C@@H](NC(=O)[C@@H](N)CCSC)[C@@H](C)O)C(=O)N[C@@H](CCCNC(=N)N)C(=O)N[C@@H](CCC(=O)O)C(=O)N[C@@H](Cc1ccccc1)C(=O)N1CCC[C@H]1C(=O)N[C@@H](CCCNC(=N)N)C(=O)N[C@@H](CCCCN)C(=O)O [3102.0225] (H-MTIREFPRK-OH) | 1.6
16 | CC(C)C[C@H](NC(=O)[C@H](Cc1ccc(O)cc1)NC(=O)[C@H](CCCNC(=N)N)NC(=O)[C@@H](NC(=O)[C@@H](N)CCCNC(=N)N)C(C)C)C(=O)N[C@H](C(=O)N[C@@H](CCCNC(=N)N)C(=O)N[C@@H](CC(N)=O)C(=O)N[C@@H](Cc1ccc(O)cc1)C(=O)O)[C@@H](C)O [3102.0155] (H-RVRYLTRNY-OH) | 5.6
17 | CSCC[C@H](N)C(=O)NCC(=O)N[C@@H](CCCNC(=N)N)C(=O)N[C@@H](Cc1ccccc1)C(=O)NCC(=O)N[C@@H](Cc1ccc(O)cc1)C(=O)N[C@H](C(=O)N1CCC[C@H]1C(=O)N[C@@H](Cc1ccc(O)cc1)C(=O)O)C(C)C [3102.0212] (H-MGRFGYVPY-OH) | 15
18 | CC[C@H](C)[C@H](NC(=O)[C@H](CCCCN)NC(=O)[C@@H](NC(=O)[C@@H](N)Cc1c[nH]cn1)[C@@H](C)O)C(=O)N[C@@H](CC(=O)O)C(=O)N[C@@H](CO)C(=O)N[C@@H](CCSC)C(=O)N[C@@H](Cc1ccccc1)C(=O)N[C@@H](CC(C)C)C(=O)O [3102.0016] (H-HTKIDSMFL-OH) | 1.5
19 | CC(C)C[C@H](NC(=O)[C@H](CO)NC(=O)[C@@H]1CCCN1C(=O)[C@@H]1CCCN1C(=O)[C@H](CO)NC(=O)[C@@H](NC(=O)[C@@H](N)CCCCN)C(C)C)C(=O)NCC(=O)N[C@@H](CCCCN)C(=O)O [3102.0017] (H-KVSPPSLGK-OH) | 1.1
20 | CSCC[C@H](NC(=O)[C@H](CCC(=O)O)NC(=O)[C@H](CO)NC(=O)[C@H](CC(C)C)NC(=O)[C@H](CCCNC(=N)N)NC(=O)[C@@H](NC(=O)[C@@H](N)CCCCN)[C@@H](C)O)C(=O)N[C@@H](CC(C)C)C(=O)N[C@@H](CO)C(=O)O [3102.0174] (H-KTRLSEMLS-OH) | 0.45
21 | CC(C)C[C@H](NC(=O)[C@H](CCCNC(=N)N)NC(=O)[C@H](Cc1ccc(O)cc1)NC(=O)[C@H](CCC(=O)O)NC(=O)[C@H](CCC(N)=O)NC(=O)[C@H](Cc1ccccc1)NC(=O)[C@@H](NC(=O)[C@@H](N)Cc1c[nH]cn1)C(C)C)C(=O)N[C@@H](CCCCN)C(=O)O [3102.0284] (H-HVFQEYRLK-OH) | 27
22 | CC[C@H](C)[C@H](NC(=O)[C@H](CC(N)=O)NC(=O)[C@H](CCCNC(=N)N)NC(=O)[C@@H](NC(=O)[C@@H](NC(=O)[C@H](CC(N)=O)NC(=O)[C@H](CCCNC(=N)N)NC(=O)[C@@H](NC(=O)[C@@H](N)CCCCN)[C@@H](C)O)C(C)C)[C@@H](C)CC)C(=O)O [3102.0486] (H-KTRNVIRNI-OH) | 0.072
23 | CC(C)[C@H](NC(=O)[C@H](CO)NC(=O)[C@H](CCCNC(=N)N)NC(=O)[C@H](Cc1ccccc1)NC(=O)[C@H](CCCNC(=N)N)NC(=O)[C@H](Cc1ccccc1)NC(=O)[C@@H](N)CCCNC(=N)N)C(=O)N[C@@H](Cc1ccc(O)cc1)C(=O)NCC(=O)O [3102.0175] (H-RFRFRSVYG-OH) | 0.36
24 | CC[C@H](C)[C@H](NC(=O)[C@@H](N)CCCNC(=N)N)C(=O)N[C@@H](CCCNC(=N)N)C(=O)N[C@@H](CCC(N)=O)C(=O)N[C@@H](CCC(N)=O)C(=O)N[C@@H](CC(C)C)C(=O)N1CCC[C@H]1C(=O)N[C@@H](CC(C)C)C(=O)N[C@@H](Cc1ccc(O)cc1)C(=O)O [3102.0107] (H-RIRQQLPLY-OH) | 13
25 | CC[C@H](C)[C@H](NC(=O)[C@H](CC(N)=O)NC(=O)[C@@H](NC(=O)[C@H](CC(N)=O)NC(=O)[C@H](CCCCN)NC(=O)[C@H](CO)NC(=O)[C@@H](N)CCCCN)[C@@H](C)CC)C(=O)N[C@@H](CCC(=O)O)C(=O)N[C@H](C(=O)O)C(C)C [3102.0150] (H-KSKNINIEV-OH) | 0.32
26 | CC[C@H](C)[C@H](NC(=O)[C@H](CCCCN)NC(=O)[C@H](CO)NC(=O)[C@H](CCCCN)NC(=O)[C@@H](NC(=O)[C@@H](N)CCCNC(=N)N)[C@@H](C)O)C(=O)N[C@@H](CC(C)C)C(=O)N[C@@H](Cc1ccccc1)C(=O)NCC(=O)O [3102.1348] (H-RTKSKILFG-OH) | 10
27 | CC[C@H](C)[C@H](NC(=O)[C@@H](N)CCCCN)C(=O)N[C@@H](CCCNC(=N)N)C(=O)N1CCC[C@H]1C(=O)N[C@H](C(=O)N[C@@H](CCCNC(=N)N)C(=O)N[C@@H](CO)C(=O)N[C@H](C(=O)N[C@@H](Cc1ccc(O)cc1)C(=O)O)C(C)C)[C@@H](C)O [3102.0206] (H-KIRPTRSVY-OH) | 7.2
28 | CC(C)C[C@H](NC(=O)[C@@H](NC(=O)[C@H](CS)NC(=O)[C@H](C)NC(=O)[C@H](Cc1ccccc1)NC(=O)[C@H](CCCCN)NC(=O)[C@H](CO)NC(=O)[C@@H](N)CO)C(C)C)C(=O)N[C@@H](CCCCN)C(=O)O [3102.0265] (H-SSKFACVLK-OH) | 9.9
29 | CC[C@H](C)[C@H](NC(=O)[C@H](Cc1ccccc1)NC(=O)[C@@H]1CCCN1C(=O)[C@H](C)NC(=O)[C@H](CS)NC(=O)[C@H](Cc1c[nH]c2ccccc12)NC(=O)[C@H](CCCCN)NC(=O)[C@@H](NC(=O)[C@@H](N)CCSC)[C@@H](C)O)C(=O)O [3102.0130] (H-MTKWCAPFI-OH) | 0.17
30 | CC[C@H](C)[C@H](NC(=O)[C@H](CC(C)C)NC(=O)[C@H](CO)NC(=O)CNC(=O)[C@@H]1CCCN1C(=O)[C@H](CCCNC(=N)N)NC(=O)[C@H](Cc1ccccc1)NC(=O)[C@@H](N)CCCCN)C(=O)N[C@@H](Cc1ccc(O)cc1)C(=O)O [3102.0230] (H-KFRPGSLIY-OH) | 0.3
